Assays:
sigma-1 receptor = sigma-1 receptor (Homo sapiens, UniProt Q99720); experiment: Sigma1 binding assay (3H-DTG radioligand, cell membrane); conditions: sigma-1R cell membrane, 2 hours at room temperature; for IC50: read-out: Sigma1 Binding Assay Summary IC50; for Ki: read-out: Sigma1 Binding Assay Summary Ki
Method: (§1) The pharmacodynamic test methods employed in this embodiment are those known to those skilled in the art; the sigma-2 receptor inhibitory activity assay kit employed in this embodiment is commercially available to those skilled in the art. sigmal/sigma-2 receptor affinity activity test:
(§2) In a 96-well plate, eight 4-fold dilutions of the test and reference compounds were made, and 1 μL of each compound was added to each well, and the wells were rearranged. The reference compound Haloperidol was added at a starting concentration of 1 μM, 1 μL of DMSO was added to the high signal control wells (High control), and 1 μL of Haloperidol was added to the low signal control wells (Low control) at a concentration of 200 μM (final concentration of 1 μM), and 100 μL of desired concentration of sigma-1R or sigma-2R cell membrane, diluted in 50 mM Tris-HCl (pH 7.4, Sigma, Cat: T1503-1 KG) was added to each well and 100 μL of desired concentration of 3H-DTG diluted in 50 mM Tris-HCl (pH 7.4) was added to each well, the 96-well plate was sealed, and incubated for 2 hours at room temperature on a shaker at 300 rpm. Simultaneously, GF/C filter plates (PerkinElmer, Cat: NET986250UC) were soaked with 0.3% PEI (Poly ethyleneimine, Sigma, Cat: P3143). After incubation, the cells were collected onto GF/C filter plates with a cell collector (PerkinElmer, model: C961961), washed 4 times with 50 mM Tris-HCl (pH 7.4) wash buffer, and then dried in an oven at 50° C. for 1 h. The bottom of the dried GF/C filter plates were sealed with a membrane, and 50 μL of scintillation solution was added into each well and sealed, and the cells were read by using a Microbeta (PerkinElmer, model: 2450 Microplate Counter). The percentage of activity was calculated using Microsoft Excel software with the formula: % Activity=100×(Sample RawValue−High Control Average)/(Low Control Average-High Control Average), using GraphPad Prism 5 data analysis software. The Dose-response-Stimulation-log [antagonist] vs. response-Variable slope model was selected for fitting analysis to obtain the IC50 value of each tested sample, and the results are shown in Table 1.

sigma-2 receptor [1] = target: T1, sigma-2 receptor (Homo sapiens, UniProt Q5BJF2); experiment: Sigma 2 binding assay (3H-DTG radioligand, cell membrane); conditions: sigma-2R cell membrane, 2 hours at room temperature; for IC50: read-out: Sigma 2 Binding Assay Summary IC50; for Ki: read-out: Sigma 2 Binding Assay Summary Ki
Method: as §1, §2

[2] = tested on: cerebrospinal fluid β-amyloid (aβ); conditions: at 1 h after administration; cited from earlier work
sigma-2 receptor [3] = target: T1, sigma-2 receptor; conditions: cited from earlier work
[4] = cited from earlier work

T1 sequence (Q5BJF2 whole entry, species assumed): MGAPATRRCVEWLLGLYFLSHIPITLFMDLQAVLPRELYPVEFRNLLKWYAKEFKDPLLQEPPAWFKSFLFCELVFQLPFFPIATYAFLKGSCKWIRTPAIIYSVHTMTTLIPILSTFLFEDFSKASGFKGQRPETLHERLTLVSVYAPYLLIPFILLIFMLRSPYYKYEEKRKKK
Chain of sigma-1 receptor (Q99720 whole entry): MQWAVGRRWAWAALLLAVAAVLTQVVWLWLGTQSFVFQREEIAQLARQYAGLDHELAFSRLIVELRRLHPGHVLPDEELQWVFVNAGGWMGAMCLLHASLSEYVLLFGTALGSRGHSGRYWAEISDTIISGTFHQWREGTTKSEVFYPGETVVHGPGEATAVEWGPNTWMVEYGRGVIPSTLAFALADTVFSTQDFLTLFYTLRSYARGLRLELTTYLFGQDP

| Compound | IC50 (sigma-1 receptor) | Ki (sigma-1 receptor) | IC50 (sigma-2 receptor [1]) | Ki (sigma-2 receptor [1]) | concentration of cerebrospinal fluid β-amyloid (aβ) [2] | sigma-1 and sigma-2 receptor selectivity (sigma-2 receptor [3]) | oral bioavailability [4] |
| --- | --- | --- | --- | --- | --- | --- | --- |
| CCCCS(=O)(=NC(=O)CC)c1ccc2c(c1)CN(C(C)(C)CCc1ccc(O)c(OC(C)(C)C)c1)C2 (stereo not shown) [Compound 11, N-((2-(4-(3-(tert-butoxy)-4-hydroxyphenyl)-2-methylbutan-2-yl)isoindol-5-yl)(butyl)(oxo)-26-thioimido) propionamide] | > 5000 nM | > 5000 nM | > 500 nM | > 500 nM |  |  |  |
| CCS(=O)(=NC(C)=O)c1ccc2c(c1)CN(C(C)(C)CCc1ccc(O)c(OC(C)(C)C)c1)C2 (stereo not shown) [Compound 4, N-((2-(4-(3-(tert-butoxy)-4-hydroxyphenyl)-2-methylbutan-2-yl)isoindol-5-yl)(ethyl)(oxo)-26-thioimido)acetamide] | > 1000 nM | > 1000 nM | > 100 nM | > 100 nM |  |  |  |
| CCCS(=O)(=NC(=O)CC)c1ccc2c(c1)CN(C(C)(C)CCc1ccc(O)c(OC(C)(C)C)c1)C2 (stereo not shown) [Compound 8, N-((2-(4-(3-(tert-butoxy)-4-hydroxyphenyl)-2-methylbutan-2-yl)isoindol-5-yl)(propyl)(oxo)-26-thioimido) propionamide] | > 5000 nM | > 5000 nM | > 500 nM | > 500 nM |  |  |  |
| CCCCS(=O)(=NC(=O)CCC)c1ccc2c(c1)CN(C(C)(C)CCc1ccc(O)c(OC(C)(C)C)c1)C2 (stereo not shown) [Compound 12, N-((2-(4-(3-(tert-butoxy)-4-hydroxyphenyl)-2-methylbutan-2-yl)isoindol-5-yl)(butyl)(oxo)-26-thiimido) butyramide] | > 5000 nM | > 5000 nM | > 500 nM | > 500 nM |  |  |  |
| CCCC(=O)N=S(=O)(CCC)c1ccc2c(c1)CN(C(C)(C)CCc1ccc(O)c(OC(C)(C)C)c1)C2 (stereo not shown) [Compound 9, N-((2-(4-(3-(tert-butoxy)-4-hydroxyphenyl)-2-methylbutan-2-yl)isoindol-5-yl)(propyl)(oxo)-26-thioimido) butanamide] | > 5000 nM | > 5000 nM | > 500 nM | > 500 nM |  |  |  |
| CC(=O)N=S(=O)(CCCCF)c1ccc2c(c1)CN(C(C)(C)CCc1ccc(O)c(OC(C)(C)C)c1)C2 (stereo not shown) [Compound 15, N-((2-(4-(3-(tert-butoxy)-4-hydroxyphenyl)-2-methylbutan-2-yl)isoindol-5-yl)(fluoro-butyl)(oxo)-26-thioimido)acetamide] | > 5000 nM | > 5000 nM | > 500 nM | > 500 nM |  |  |  |
| CCCCS(=O)(=NC(C)=O)c1ccc2c(c1)CN(C(C)(C)CCc1ccc(O)c(OC(C)(C)C)c1)C2 (stereo not shown) [Compound 10] | > 5000 nM | > 5000 nM | > 500 nM | > 500 nM |  |  |  |
| CC(C)(C)Oc1cc(CCC(C)(C)N2Cc3ccc(S(C)(=O)=O)cc3C2)ccc1O [CT1812] |  |  |  |  | increase | poor | poor |
| CC(=O)N=S(=O)(CCCF)c1ccc2c(c1)CN(C(C)(C)CCc1ccc(O)c(OC(C)(C)C)c1)C2 (stereo not shown) [Compound 14] | > 5000 nM | > 5000 nM | > 500 nM | > 500 nM |  |  |  |
| CCCCS(=N)(=O)c1ccc2c(c1)CN(C(C)(C)CCc1ccc(O)c(OC(C)(C)C)c1)C2 (stereo not shown) [Compound 19] | > 1000 nM | > 1000 nM | > 100 nM | > 100 nM |  |  |  |
| CCC(=O)N=S(=O)(CC)c1ccc2c(c1)CN(C(C)(C)CCc1ccc(O)c(OC(C)(C)C)c1)C2 (stereo not shown) [Compound 5, N-((2-(4-(3-(tert-butoxy)-4-hydroxyphenyl)-2-methylbutan-2-yl)isoindol-5-yl)(ethyl)(oxo)-16-thioimido) propionamide] | > 1000 nM | > 1000 nM | > 100 nM | > 100 nM |  |  |  |
| CCCS(=O)(=NC(C)=O)c1ccc2c(c1)CN(C(C)(C)CCc1ccc(O)c(OC(C)(C)C)c1)C2 (stereo not shown) [Compound 7, N-((2-(4-(3-(tert-butoxy)-4-hydroxyphenyl)-2-methylbutan-2-yl)isoindol-5-yl)(propyl)(oxo)-26-thioimino)acetamide] | > 5000 nM | > 5000 nM | > 500 nM | > 500 nM |  |  |  |
| CC(C)(C)Oc1cc(CCC(C)(C)N2Cc3ccc(S(=N)(=O)CCCF)cc3C2)ccc1O (stereo not shown) [Compound 21] | > 5000 nM | > 5000 nM | > 500 nM | > 500 nM |  |  |  |
| CC(C)(C)Oc1cc(CCC(C)(C)N2Cc3ccc(S(=N)(=O)CCCCF)cc3C2)ccc1O (stereo not shown) [Compound 22] | > 5000 nM | > 5000 nM | > 500 nM | > 500 nM |  |  |  |
| CC(=O)N=S(C)(=O)c1ccc2c(c1)CN(C(C)(C)CCc1ccc(O)c(OC(C)(C)C)c1)C2 (stereo not shown) [Compound 1, N-((2-(4-(3-(tert-butoxy)-4-hydroxyphenyl)-2-methylbutan-2-yl)isoindol-5-yl)(methyl)(oxo)-λ6-thioimido)acetamide] | > 1000 nM | > 1000 nM | > 100 nM | > 100 nM |  |  |  |
| CCC(=O)N=S(C)(=O)c1ccc2c(c1)CN(C(C)(C)CCc1ccc(O)c(OC(C)(C)C)c1)C2 (stereo not shown) [Compound 2, N-((2-(4-(3-(tert-butoxy)-4-hydroxyphenyl)-2-methylbutan-2-yl)isoindol-5-yl)(methyl)(oxo)-26-thioimido) propionamide] | > 1000 nM | > 1000 nM | > 100 nM | > 100 nM |  |  |  |
| CCCC(=O)N=S(=O)(CC)c1ccc2c(c1)CN(C(C)(C)CCc1ccc(O)c(OC(C)(C)C)c1)C2 (stereo not shown) [Compound 6, N-((2-(4-(3-(tert-butoxy)-4-hydroxyphenyl)-2-methylbutan-2-yl)isoindol-5-yl)(ethyl)(oxo)-26-thioimido) butyramide] | > 5000 nM | > 5000 nM | > 500 nM | > 500 nM |  |  |  |
| CC(C)(C)Oc1cc(CCC(C)(C)N2Cc3ccc(S(=N)(=O)CF)cc3C2)ccc1O (stereo not shown) [Compound 20] | > 100 nM | > 100 nM | < 100 nM | < 100 nM |  |  |  |
| CCCS(=N)(=O)c1ccc2c(c1)CN(C(C)(C)CCc1ccc(O)c(OC(C)(C)C)c1)C2 (stereo not shown) [Compound 18] | > 5000 nM | > 5000 nM | > 500 nM | > 500 nM |  |  |  |
| CCCC(=O)N=S(C)(=O)c1ccc2c(c1)CN(C(C)(C)CCc1ccc(O)c(OC(C)(C)C)c1)C2 (stereo not shown) [Compound 3, N-((2-(4-(3-(tert-butoxy)-4-hydroxyphenyl)-2-methylbutan-2-yl)isoindol-5-yl)(methyl)(oxo)-26-thioimido) butanamide] | > 5000 nM | > 5000 nM | > 500 nM | > 500 nM |  |  |  |
| CC(=O)N=S(=O)(CF)c1ccc2c(c1)CN(C(C)(C)CCc1ccc(O)c(OC(C)(C)C)c1)C2 (stereo not shown) [Compound 13, N-((2-(4-(3-(tert-butoxy)-4-hydroxyphenyl)-2-methylbutan-2-yl)isoindol-5-yl)(fluoromethyl)(oxo)-26-thioimido)acetamide] | > 1000 nM | > 1000 nM | > 100 nM | > 100 nM |  |  |  |
| CCS(=N)(=O)c1ccc2c(c1)CN(C(C)(C)CCc1ccc(O)c(OC(C)(C)C)c1)C2 (stereo not shown) [Compound 17] | > 100 nM | > 100 nM | < 100 nM | < 100 nM |  |  |  |
| CC(C)(C)Oc1cc(CCC(C)(C)N2Cc3ccc(S(C)(=N)=O)cc3C2)ccc1O (stereo not shown) [Compound 16] | > 100 nM | > 100 nM | < 100 nM | < 100 nM |  |  |  |

Source: patent publication US12371405B1, “Isoindol-sulfilimine compound and use as a sigma-2 receptor inhibitor thereof” (SHANGHAI UNIVERSITY OF MEDICINE AND HEALTH SCIENCES, priority 2024, dated 2025)
